From US20050049305A1, “Use of L-carnitine in the prevention and treatment of hearing loss” (priority 2002, published 2005)
Read-outs that look alike come from different tables or passages of the source. Marks after values point to notes of the source that are not given here.

Assays:
[1] = tested on: outer hair cells (OHCs) of organ of Corti; assay type: in vivo
Experimental: Pregnant guinea pigs were divided in three groups of 4 each. […] Those from group #2 also received a supplementary dose of LCAR in their drinking water (1 mg/ml ad libitum˜100 mg/kg/day) during the second half of the pregnancy and the immediate postnatal period. Guinea pigs from group #3 (4 mothers & 10 newborns), the control group, were injected with saline solution. Two weeks after delivery, all guinea pigs (mothers and newborns) were anesthetized by intraperitoneal injections of ketamine hydrochloride (60 mg/kg) and xylazine hydrochloride (5 mg/kg), and their auditory brainstem responses (ABR) were measured. They were then euthanized with CO2, and potential cochlear damage was evaluated by confocal microscopy.
The ABR results described in FIG. 1 were independently corroborated by confocal microscopy of the organ of Corti in mothers and newborns. […] The results of FIG. 2 are quantified in Table 1 and FIG. 3.

HEI-OC1 cells [2] = assay: Cisplatin-induced apoptosis, DNA laddering and TUNEL; assay type: cell-based, mouse
From the text: The HEI-OC1 cell line was cloned from cochlear half-turn explants from of an Immortomouse™. […] They are polygonal squamous cells with a dense perinuclear region containing a dense accumulation of multivesicular structures. These multivesicular structures were also observed in the rest of the cytoplasm, although at a lower density. HEI-OC1 cells co-express markers specific for both sensory and supporting cells. Expression of Math-1 and myosin VIIa by these cells indicate that HEI-OC1 cells are indeed sensory hair cell precursors.
Apoptosis was confirmed using TUNEL (ApoAlert DNA Fragmentation Assay—Clontech, Palo Alto, Calif.).

HEI-OC1 cells [3] = assay: Caspase-8 and caspase-9 assays in cisplatin-treated cells; assay type: cell-based, mouse
[4] = tested on: guinea pigs (mothers and newborns); assay: Cisplatin-induced sensorineural hearing loss, auditory brainstem response (ABR); assay type: in vivo, guinea pig; conditions: two weeks after delivery, cisplatin 4 mg/kg i.p. once a day for 2 days, LCAR 1 mg/ml in drinking water, mean ±S.E.M.
[5] = tested on: outer hair cells (OHCs) and stereocilia bundles; assay: Gentamicin-induced cochlear damage, confocal and scanning electron microscopy; assay type: in vivo, guinea pig
Experimental: (§1) Guinea pigs were used to evaluate the impact of prenatal LCAR supplementation on stress- and gentamicin-induced mortality in newborns because this animal model closely resembles perinatal human physiology. Pregnant guinea pigs (n=25) were divided in five groups. […] In group #2, stress was induced by intraperitoneal injections of normal saline (once daily from days 51 to 57 of gestation). Guinea pigs in group #3 were injected with gentamicin (100 mg/kg once daily from days 51 to 57 of gestation). Finally, groups #4 and #5 were injected with gentamicin as described for group #3, but received LCAR supplementation in their water supply (1 mg/ml˜100 mg/kg/day) starting either 2 weeks prior (Group #4) or simultaneously with gentamicin (Group #5). Newborn mortality was defined as either stillborn or death within the first 48 hrs of life.
Confocal and electron microscopy studies indicate that gentamicin induces both sensory cell death and stereocilia disruption in mothers and newborn guinea pigs. […] Whereas in Control animals the three rows of OHCs look generally intact (FIG. 6B), cochleas from guinea pigs treated with gentamicin show “scars” where supporting cells replaced dead OHCs (FIG. 6C). In addition, stereocilia bundles look completely disorganized, with significant structural changes and even “giant” stereocilia (FIG. 6D). […]

[6] = tested on: guinea pigs (mothers and newborns); assay: Gentamicin-induced sensorineural hearing loss, ABR; assay type: in vivo
Experimental: as §1, with “Finally, groups #4 and #5 were injected with gentamicin as described for group #3, but received LCAR supplementation in their water supply (1 mg/ml˜100 mg/kg/day) starting either 2 weeks prior (Group #4) or simultaneously with gentamicin (Group #5).” left out
We investigated the hearing condition and cochlear integrity in the guinea pigs from the five experimental groups described in the above paragraph. Typical ABR recordings from newborn guinea pigs are shown in FIG. 4, while FIG. 5 describes the statistical results. […] Gentamicin (group #3), in contrast, induced a significant increase in hearing threshold in respect to saline (group #2) in mothers (49±3 dB vs. 28±2; P≦0.01) and newborns (38±2 vs. 29±1; P≦0.01).

newborn guinea pigs [7] = assay: Gentamicin-induced neonatal mortality; assay type: in vivo, guinea pig
Experimental: as §1

HEI-OC1 cells [8] = assay: LCAR prevention of cisplatin- and gentamicin-induced apoptosis, colorimetric CaspACE assay; assay type: cell-based, mouse; conditions: 48 hours pre-incubation with 2 mg/ml LCAR
From the text: We further investigated whether LCAR was able to prevent cisplatin- and gentamicin-induced apoptosis in HEI-OC1 cells.

newborn guinea pigs [9] = assay: Noise-induced neonatal mortality; assay type: in vivo, guinea pig; conditions: group #2: broadband noise 95 SPL 4 h/day, days 50-53 of gestation; LCAR 1 mg/ml in water from day 28
Experimental: (§2) In order to evaluate noise-induced neonatal mortality and the potential impact of prenatal LCAR supplementation, six pregnant guinea pigs were divided into three groups of two animals each. Pregnant guinea pigs in groups #1 and #2 were exposed 4 hours a day during 4 consecutive days to broadband noise (100 Hz-10 kHz) at 95 SPL during days 50 to 53 of gestation. In addition, guinea pigs in group #2 received daily LCAR supplementation in their water supply (1 mg/ml˜100 mg/kg/day) from day 28 of gestation. […] Noise exposure was performed in a sound booth, with the animals in individual plastic cages placed on a wire shelf at ˜0.8 m above the floor. Since at this time of pregnancy guinea pigs spend most of the time resting with the abdomen in contact with the cage floor, the speakers were placed below the shelf, with the sound waves directed toward the cage's floor. Sound pressure levels were measured with a calibrated digital sound level meter (Radio Shack #33-2055) inside the plastic cages.
The experimental protocol assume normal delivery after 59-62 days of pregnancy. In fact, control animals delivered at days 59 and 61, respectively. […] Neonatal mortality—expressed as the number of stillborn or newborn death within the first 48 hrs of life over the total number of animals delivered—was 77% in group #1 ( 7/9), 9% in group #2 ( 1/11), and 0% in group #3 (0/9).

[10] = humans, cited from earlier work
[11] = tested on: guinea pigs (mothers and newborns); assay: Noise-induced hearing loss (ABR) and cochlear damage; assay type: in vivo, guinea pig
Experimental: as §2
Noise-induced cochlear damage and changes in hearing threshold were evaluated in mothers and newborns (ten days after delivery) in the three groups described in the above paragraph. We found moderate threshold shifts (˜9 dB) in mothers exposed to noise (group #1). […] In newborns, we also observed a higher hearing threshold in noise-exposed animals than in those of the control group (36±2 dB group #1 and 30±1 dB group #2 vs. 22±1 dB group #3 control).
Similar damage, but concentrated in smaller regions, was present in cochleas from LCAR-supplemented animals.

[12] = Coleman et al. 2001; cited from earlier work
[13] = LCAR + Gentamicin = LCAR two weeks prior, Gentamicin + LCAR = simultaneous

N.N.[Cl][Pt][Cl] [Cisplatin, cisplatin]
cisplatin-induced inner hair cell (IHC) damage ([1]; guinea pig, in vivo): no significant
loss of OHCs by cochlear turn ([1]; guinea pig, in vivo): significant loss of OHCs in the first and second turn of the cochlea
Total % (damaged/total OHCs) ([1]; mothers): 36.0 (297/824) %
damaged OHC (%) Row #1 ([1]; mothers): 39.6%
damaged OHC (%) Row #2 ([1]; mothers): 32.6%
damaged OHC (%) Row #3 ([1]; mothers): 35.9%
Total % (damaged/total OHCs) ([1]; newborns): 34.9 (443/1268) %
damaged OHC (%) Row #1 ([1]; newborns): 50.2%
damaged OHC (%) Row #2 ([1]; newborns): 37.9%
damaged OHC (%) Row #3 ([1]; newborns): 16.9%
incubation time after which DNA laddering was visible (HEI-OC1 cells [2]; 100 μM cisplatin, periods 6 hours to 24 hours): 18 h
cisplatin concentration at which apoptosis (laddering pattern) was first detected (HEI-OC1 cells [2]; 24 hours incubation, doses 25 μM to 500 μM): 100 µM
caspase-9 activity (HEI-OC1 cells [3]; 12-hour incubation with 100 μM cisplatin): increased about five-fold
caspase-8 activity (HEI-OC1 cells [3]; cisplatin-treated HEI-OC1 cells): little change in activity
average ABR hearing threshold [4]: 46±4 dB

gentamicin
OHC death, OHCs % Row #1 [5, 13]: 0.6* %
OHC death, OHCs % Row #2 [5, 13]: 0.9** %
OHC death, OHCs % Row #3 [5, 13]: 0.8** %
OHC death, Total % [5, 13]: 0.7** %
ABR hearing threshold, mothers ([6]; mothers, group #3 gentamicin 100 mg/kg daily, days 51-57 of gestation): 49±3 dB
ABR hearing threshold, newborns ([6]; newborns, group #3 gentamicin given to pregnant mothers): 38±2 dB
neonatal mortality (stillborn or death within first 48 hrs) (newborn guinea pigs [7]; group #3: gentamicin 100 mg/kg once daily, days 51 to 57 of gestation): 54%

C[N+](C)(C)C[C@H](O)CC(=O)[O-] [LCAR, L-carnitine]
gentamicin-induced cell apoptosis (caspase-3, CaspACE) (HEI-OC1 cells [8]; then 24 hours 50 μM gentamicin): significantly inhibited
cisplatin-induced cell apoptosis (caspase-3, CaspACE) (HEI-OC1 cells [8]; then 24 hours 200 μM cisplatin): significantly inhibited
effect on gentamicin-induced OHC death ([5]; LCAR prior vs simultaneous): significantly prevented only in animals supplemented with LCAR two weeks prior gentamicin treatment
effect on gentamicin-induced stereocilia disruption ([5]; LCAR provided either prior or simultaneously with gentamicin): inhibit gentamicin-induced stereocilia disruption
effect of LCAR supplementation on cisplatin-induced OHC damage ([1]; mothers and newborns): attenuates this cisplatin-induced OHC damage
neonatal mortality (stillborn or death within first 48 hrs) (newborn guinea pigs [9]): 9%
dietary LCAR absorbed ([10]; dietary): 54-87%
LCAR filtered by the kidney that is reabsorbed [10]: 90-98%
noise-induced cochlear damage (microscopy) ([11]; LCAR-supplemented noise-exposed animals): significant decrease in cochlear damage
hearing threshold shift in noise-exposed mothers ([11]; mothers, LCAR supplemented, ten days after delivery): no changes were observed
hearing threshold in newborns ([11]; newborns, group #2 noise + LCAR, ten days after delivery): 30±1 dB
effect of LCAR supplementation on gentamicin ototoxicity (ABR) ([6]; LCAR from 28 days of pregnancy (group #4) or coincidental with gentamicin (group #5)): attenuates the ototoxic effects of gentamicin in both mothers and pups
neonatal mortality (stillborn or death within first 48 hrs) (newborn guinea pigs [7]; group #4: gentamicin plus LCAR 1 mg/ml in water starting 2 weeks prior): 15%
neonatal mortality (stillborn or death within first 48 hrs) (newborn guinea pigs [7]; group #5: gentamicin plus LCAR 1 mg/ml in water starting simultaneously): 9%

CC(=O)O[C@H](CC(=O)[O-])C[N+](C)(C)C [ALCAR, acetyl-L-carnitine]
effect on noise-induced hearing loss [12]: attenuates noise-induced hearing loss
